Source: article PMC10290117, “Molecular mechanism of phosphopeptide neoantigen immunogenicity” (Nature Communications, 2023)

Test system: TCR27-AKD10R3 cells
Assay: X-scan (peptide scan), EGFP reporter effector cells
Format: cell-based, murine
Conditions: Fig. 1c source data, HLA B*07, T2 cells pulsed with 25 μg peptide per 1 × 10^6 cells, 2 h, 37 °C, effector cells 2:1 overnight, mean value of triplicate
Description: Tap-deficient T2 (174x CEM.T2) HLA-B*0702+ cells were received from Dr. Victor Engelhard. These and the commercially purchased Tap-deficient T2 (174 x CEM.T2) cells (ATCC CRL 1991) were maintained in RPMI 1640 (BioConcept) supplemented with 10% fetal calf serum (FCS, HyClone), 2mM L-glutamine and 1% Penicillin/Streptomycin at 37 °C and 5% CO2. The EGFP reporter cell line was based on a murine TCR negative thymoma cell line derived from strain BW5417 (ATCC®TIB-47TM) and was stably transduced with (a) TCR27 in which the human constant regions were replaced with those of mouse, (b) a chimeric mouse/human CD8, and (c) an EGFP reporter construct linked to a minimal IL-2 promoter comprising three NFAT-binding sites (3xNFAT)[44]. The transduced cells were termed TCR27-AKD10R3 cells and will be called the effector cells. Mouse cell lines were cultured in SF-IMDM (BioConcept) supplemented with 3% FCS, 1% Penicillin/Streptomycin, and 50 μM beta-mercaptoethanol at 37 °C and 10% CO2.
Peptides were dissolved in dimethyl sulfoxide (DMSO) at concentrations of 2–20 mg/mL, aliquoted and stored at −80 °C. Peptide-pulsing experiments were performed by pre-incubating T2 cells with 25 μg peptide per 1 × 10^6 cells in PBS for 2 h at 37 °C and 5% CO2, washed three times to remove unbound peptides and used for further downstream analysis. Peptide-pulsed T2 cells were incubated with effector cells in a 2:1 ratio overnight in SF-IMDM at 37 °C and 10% CO2, washed twice and stained with anti-mouse TCR-® chain clone H57-597 (BD Pharmingen #560656, 1:500) for 30 min at RT. Cells were washed twice before FACS-analysis using a BD FACS Canto II with System software v2.0. Data analysis was performed using FlowJo V10 Software. Binding affinity between each peptide and HLA-B*0702 was determined using an Alpha assay. It is a homogenous, proximity-based assay for detection of peptides binding to HLA class I molecules using a conformation-dependent anti-HLA class I antibody, W6/32, as one tag and a biotinylated recombinant HLA class I molecule as the other tag, and a proximity-based signal was generated through the luminescent oxygen channeling immunoassay technology (PerkinElmer) as described.
To identify the off-target peptides we have utilized an approach that was developed previously. In brief, we investigated which amino acids at each position in pMLL747–755 enable TCR interaction by sequentially replacing every amino acid position outside of the anchor positions 2 and 9 with all 19 alternative amino acids, resulting in 134 peptides (133 altered peptides plus original epitope). Each peptide was individually evaluated using cell-based in vitro cytotoxicity assay. To represent the TCR recognition kernel, we have defined Position Weight Matrices (PWMs) for each assay by assigning normalized measurements to each of the 20 amino acids in each position. To predict potential off-target peptides, we applied an algorithm projecting the PWM-defined kernel into the human proteome, scoring TCR27 recognition for the predicted HLA-B^*0702 binding 9-mer peptides. Of the 11 peptides with highest predicted cross-reactivity scores, we confirmed that only 2, […] and pDOT1L998–1006, strongly activated the TCR27-expressing effector T cells.

| Substance | Percentage GFP positive from TCR+ cells [%] |
| --- | --- |
| EPRsPDHSM [single-residue substitution of pMLL747–755, Pos 6] | 1.07 |
| EPRsPEHSM [single-residue substitution of pMLL747–755, Pos 6] | 4.34 |
| EPRsPFHSM [single-residue substitution of pMLL747–755, Pos 6] | 0.82 |
| EPRsPGHSM [single-residue substitution of pMLL747–755, Pos 6] | 1.34 |
| EPRsPHHSM [single-residue substitution of pMLL747–755, Pos 6] | 2.09 |
| EPRsPIHSM [single-residue substitution of pMLL747–755, Pos 6] | 0.85 |
| EPRsPKHSM [single-residue substitution of pMLL747–755, Pos 6] | 0.87 |
| EPRsPLHSM [single-residue substitution of pMLL747–755, Pos 6] | 0.96 |
| EPRsPMHSM [single-residue substitution of pMLL747–755, Pos 6] | 0.73 |
| EPRsPNHSM [single-residue substitution of pMLL747–755, Pos 6] | 12.1 |
| EPRsPPHSM [single-residue substitution of pMLL747–755, Pos 6] | 0.96 |
| EPRsPQHSM [single-residue substitution of pMLL747–755, Pos 6] | 0.89 |
| EPRsPRHSM [single-residue substitution of pMLL747–755, Pos 6] | 0.98 |
| EPRsPSASM [single-residue substitution of pMLL747–755, Pos 7] | 0.88 |
| EPRsPSCSM [single-residue substitution of pMLL747–755, Pos 7] | 0.97 |
| EPRsPSDSM [single-residue substitution of pMLL747–755, Pos 7] | 0.72 |
| EPRsPSESM [single-residue substitution of pMLL747–755, Pos 7] | 1.15 |
| EPRsPSFSM [single-residue substitution of pMLL747–755, Pos 7] | 0.97 |
| EPRsPSGSM [single-residue substitution of pMLL747–755, Pos 7] | 0.85 |
| EPRsPSHAM [single-residue substitution of pMLL747–755, Pos 8] | 8.72 |
| EPRsPSHCM [single-residue substitution of pMLL747–755, Pos 8] | 4.53 |
| EPRsPSHDM [single-residue substitution of pMLL747–755, Pos 8] | 5.87 |
| EPRsPSHEM [single-residue substitution of pMLL747–755, Pos 8] | 8.26 |
| EPRsPSHFM [single-residue substitution of pMLL747–755, Pos 8] | 1.28 |
| EPRsPSHGM [single-residue substitution of pMLL747–755, Pos 8] | 1.39 |
| EPRsPSHHM [single-residue substitution of pMLL747–755, Pos 8] | 3.9 |
| EPRsPSHIM [single-residue substitution of pMLL747–755, Pos 8] | 3.8 |
